{"source": "BindingDB's records for doi:10.1016/j.bmcl.2003.07.021", "about": "(Vicuron Pharmaceuticals, 2003)", "molecular_target": "DNA gyrase (Escherichia coli)", "assay": "Inhibitory concentration against Escherichia coli by Escherichia coli DNA gyrase gel-based supercoil assay"}
{"smiles": "CCOC(=O)c1cn(CC)c2cc(N3CCN(C(=O)c4ccc(N5C[C@H](CNC(C)=O)OC5=O)cc4F)CC3)c(F)cc2c1=O", "note": "[7-(4-{4-[(S)-5-(Acetylamino-methyl)-2-oxo-oxazolidin-3-yl]-2-fluoro-benzoyl}-piperazin-1-yl)-1-ethyl-6-fluoro-4-oxo-1,4-dihydro-quinoline-3-carboxylic acid ethyl ester]", "values": [{"measurement": "IC50", "value": 12.5, "unit": "µM"}]}
